In patent publication US20060079490A1, “Method of treatment of type I diabetes” (priority 2001, published 2006):
Read-outs that look alike come from different tables or passages of the source.

How the values were obtained:
female NOD/LtJ mice [1] = experiment: Injection vs. Dietary Study: diabetic incidence at day 200; assay type: in vivo, mouse; settings: injection of 50 μg/day (so in the source)
female NOD/LtJ mice [2] = experiment: as above; assay type: in vivo, mouse
Procedure: NOD/LtJ mice were fed control diets (purified Diet 11 as described in Suda, et al., J. Nutr. 100:1049-1052 1970, 0.47% calcium +vitamins A, D, E and K) or experimental diets (control +10, 25 or 50 ng of 1,25D3/mouse/day).
Control (vehicle) animals were injected with 50 μL sterile peanut oil while the experimental animals were injected with 5 μg/kg 1,25D3/mouse/2 days in sterile peanut oil.
(§1) Mice were weaned at 21 days and placed on the appropriate diets. Injections and experimental diets were administered every 48 hours. Control diets were fed 3 times/week. Every 10 days beginning at day 30 and ending on day 170, mice were weighed and bled for serum calcium determination. Beginning on day 70, mice were tested for glucosuria 3 times/week. If a mouse tested positive, it was fasted for 4 hours and bled to measure serum glucose levels. If the fasting serum glucose level was greater than 300 mg%, the mouse was considered diabetic. All mice remaining at 200 days were sacrificed.

[3] = mouse, in vivo
Procedure: as §1

[4] = Serum calcium and hypercalcemia in NOD mice given dietary 1,25(OH)2D3 (study A); assay type: in vivo, mouse; settings: for serum calcium: 50 ng each day
Description: Non-Obese Diabetic (NOD/LtJ) mice were purchased from The Jackson laboratory (Bar Harbor, Me. 04609). Mice were maintained on highly purified vitamin D-deficient diet containing 0.47% calcium and 0.3% phosphorus supplemented with vitamins A, E, and K. This diet was solidified by the addition of molten agar to a powdered diet. To obtain vitamin D-deficiency in the offspring, pregnant mothers were maintained on the vitamin D-deficient diet. Then, offspring, once weaned, were further maintained on the vitamin D-deficient diet. […] Animals were bled from the extraorbital sinus with a glass pipette after a four hour fast at 2 pm once a week.
Blood was immediately centrifuged to obtain serum. Serum was diluted in 0.1% lanthanum chloride, and serum calcium was measured by atomic absorption using a Perkin-Elmer model 3110 atomic absorption spectrometer.

[5] = test system: Non-Obese Diabetic (NOD/LtJ) mice; experiment: Diabetes incidence (serum glucose >300 mg/dL) in vitamin D-deficient NOD mice given 1,25(OH)2D3 in the diet; assay type: in vivo, mouse; settings: for incidence of diabetes: 50 ng/mouse/day in diet from weaning, at termination of experiment
Description: Non-Obese Diabetic (NOD/LtJ) mice were purchased from The Jackson laboratory (Bar Harbor, Me. 04609). Mice were maintained on highly purified vitamin D-deficient diet containing 0.47% calcium and 0.3% phosphorus supplemented with vitamins A, E, and K. This diet was solidified by the addition of molten agar to a powdered diet. To obtain vitamin D-deficiency in the offspring, pregnant mothers were maintained on the vitamin D-deficient diet. Then, offspring, once weaned, were further maintained on the vitamin D-deficient diet. […] Treatment with 1,25(OH)2D3 was started at weaning. Animals were bled from the extraorbital sinus with a glass pipette after a four hour fast at 2 pm once a week. Serum glucose was determined using the Trinder glucose oxidase enzyme assay kit purchased from Sigma (St. Louis, Mo.). 5 μL of NOD serum was used as an unknown and analyzed spectrophotometrically at 505 nm against a known glucose standard (Sigma, St. Louis, Mo.). An animal was considered diabetic if its serum glucose was greater than 300 mg/dL.

NOD mice = settings: cited from earlier work; for total diabetes incidence at 200 days: control 86%
NOD/LtJ mice = experiment: Diabetes incidence by 200 days with 1,25(OH)2D3 diet started at weaning, 8 weeks or 100 days (study C); assay type: in vivo, mouse
Procedure: Animals: Mice from an in-house breeding colony of NOD/LtJ mice (Jackson Laboratory) were used for this study. Female mice were randomly weaned into each dietary group. 24 mice were used per group.
Diet Preparation: Experimental purified diets were prepared containing 0.47% calcium supplemented with 25 IU vitamin D3 (Diet 11). […] All purified powder diets were solidified by mixing with molten agar to ensure animals consumed the exact dose of 1,25(OH)2D3. Each mouse was administered 3.5 grams of powder diet per day.
Diet Administration: Experimental purified diets were administered beginning at weaning (3 weeks of age) until 200 days of age. 1,25(OH)2D3-containing diet was administered beginning at weaning (group 2), beginning at 8 weeks of age (group 3), or beginning at 100 days of age (group 4).
Serum glucose determination: Serum glucose was measured using an enzymatic colorimetric assay (Glucose liquicolor, Stanbio, Boerne, Tex.).
Disease analysis: Urine samples were obtained twice weekly from animals older than 70 days of age and tested for urinary glucose using Diastix (Bayer, Elkhart, Ind.). Serum glucose was measured from animals with urine glucose readings >250 mg/dL. Animals with multiple serum glucose values >300 mg/dL at least 24 hours apart were considered diabetic and sacrificed via CO2 asphyxiation. All remaining animals were sacrificed at 200 days of age.

[6] = administered from 100 to 200 days of age

SMILES: C=C1/C(=C\C=C2/CCC[C@]3(C)[C@@H]([C@H](C)CCCC(C)(C)O)CC[C@@H]23)C[C@@H](O)C[C@@H]1O [1,25(OH)2D3, 1α,25-dihydroxyvitamin D3]
- effect of injection on incidence of diabetes (female NOD/LtJ mice [1]): increased rather than decreased the incidence of diabetes
- db %= (female NOD/LtJ mice [2]; 10 ng diet, day 200): 11%
- db n= (female NOD/LtJ mice [2]; 10 ng diet, day 200, n=9): 1
- db %= (female NOD/LtJ mice [2]; 25 ng diet, day 200): 22%
- db n= (female NOD/LtJ mice [2]; 25 ng diet, day 200, n=9): 2
- db %= (female NOD/LtJ mice [2]; 50 ng diet, day 200): 25%
- db n= (female NOD/LtJ mice [2]; 50 ng diet, day 200, n=8): 2
- diabetes incidence (female NOD/LtJ mice [2]; in the diet (oral treatment), day 200): 10-25%
- db %= (female NOD/LtJ mice [2]; injected 5 μg/kg/2 days in peanut oil, day 200): 71%
- db n= (female NOD/LtJ mice [2]; injected 5 μg/kg/2 days in peanut oil, day 200, n=7): 5
- incidence of diabetes (female NOD/LtJ mice [2]; injected, day 200): over 70%
- hypercalcemia [3]: clearly caused hypercalcemia
- serum calcium levels (evidence of hypercalcemia) ([4]; 200 ng group): ≥ 12 mg/dL
- serum calcium ([4]; females, at 40 days): 10.50 ± 1.53 mg/dL
- serum calcium ([4]; females, at 150 days of age): 13.10 ± 1.01 mg/dL
- number of NOD females died of hypercalcemia ([4]; females, 50 ng, by 150 days of age): 7
- serum calcium ([4]; males, at 40 days): 9.22 ± 0.93 mg/dL
- serum calcium ([4]; males, at 150 days of age): 12.78 ± 1.11 mg/dL
- serum glucose values ([5]; 200 ng group, at any time): ≤ 300 mg/dL
- incidence of diabetes ([5]; female NOD mice): 7.69%
- incidence of diabetes ([5]; male NOD mice): 7.14%
- diabetic incidence (NOD mice; [6]): same diabetic incidence as the control group
- onset of diabetes (NOD mice; [6]): appeared to be slightly delayed
- incidence of diabetes (NOD mice; female NOD mice, injection of 5 μg/kg, control 56%): 8%
- bone calcium (NOD mice; mouse, in vivo): reduced
- total diabetes incidence at 200 days (NOD mice; treated only until 100 days of age): about 35%
- total diabetes incidence at 200 days (NOD mice; treated until 200 days of age): 13%
- became diabetic by 200 days of age (NOD/LtJ mice; 50 ng in diet after 100 days of age (group 4), 23 animals): 8.7%
- animals that became diabetic by 200 days of age (NOD/LtJ mice; 50 ng in diet beginning at 8 weeks of age (group 3)): 0 of 24
- became diabetic by 200 days of age (NOD/LtJ mice; 50 ng in diet from weaning (group 2), 24 mice): 4.2%
